Reference: paper PMC4269305, “The impact of P-gp functionality on non-steady state relationships between CSF and brain extracellular fluid” (Journal of Pharmacokinetics and Pharmacodynamics, 2013)

Assays:
Na^+-K^+-ATPase = conditions: cited from earlier work
[1] = Plasma protein binding by Centrifree ultrafiltration; type: in vitro ADME; conditions: male, Wistar WU, rat, plasma (from dosed rats and from spiked blank blood); linear; not affected by co-administration of tariquidar
Protocol: […]. […] All blood samples were temporarily stored in heparin (10 IU) coated Eppendorf cups. […]. The spiked blood samples were then incubated in a shaking water bath at 37 °C for 30 min.
Plasma protein binding was determined with Centrifree® ultrafiltration devices (Millipore BV, Etten-Leur, the Netherlands). All procedures were performed according to the user’s manual. The ultrafiltrate was diluted ten times with saline before the analysis.

pKa and ionization = type: physicochemical
Source text: Therefore, based on our data, it appears that quinidine is also transported by other transporters at the BBB and BCSFB, in the direction of the brain. However, there is no direct information in literature to support this. […] The question remains how this relates to the in vivo situation, like ours. […] OCTs have been localized both at the BBB [66], as well as at the BCSFB [67].

[2] = parameters: method as in PMID 18632828, PMID 21199574; conditions: 15 mg/kg tariquidar; up to 3 h after administration; cited from earlier work
P-gp = tested on: P-gp; parameters: method as in PMID 11212278; conditions: cited from earlier work

## C=C[C@H]1C[N@@]2CC[C@H]1C[C@@H]2[C@@H](O)c1ccnc2ccc(OC)cc12 [quinidine, Quinidine]
Na^+-K^+-ATPase
  reported IC50 for inhibition of Na+-K+-ATPase activity: ~ 30 μg/ml
[1]
  fraction unbound at 30 min: 0.135
pKa and ionization; pH 7.3
  % ionized: 80%
pKa and ionization; pH 7.4
  % ionized: 76%

## COc1cc2c(cc1OC)CN(CCc1ccc(NC(=O)c3cc(OC)c(OC)cc3NC(=O)c3cnc4ccccc4c3)cc1)CC2 [tariquidar, Tariquidar]
[2]
  plasma and brain concentrations relative to the IC50 value (fold higher): over 50 -fold
P-gp
  half-maximum inhibition constant (IC50) for P-gp: approximately 25 ng/ml
